According to ChEMBL document CHEMBL3758176, “Synthesis of dihydrosterculic acid-based monoglucosyl diacylglycerol and its analogues and their biological evaluation” (Eur J Med Chem, 2016):
The source made the active and inactive calls. No cut-off for these calls is given here.

What was measured:
[1] = Cytotoxicity against human SKOV3 cells assessed as reduction in cell viability by MTT assay; type: functional, cell-based, SK-OV-3
[2] = Cytotoxicity against human DU145 cells assessed as reduction in cell viability by MTT assay; type: functional, cell-based, DU-145
HUVEC = experiment: Cytotoxicity against HUVEC assessed as reduction in cell viability by MTT assay; type: cell-based, Homo sapiens
MCF7 [3] = experiment: Cytotoxicity against human MCF7 cells assessed as reduction in cell viability by MTT assay; type: functional, cell-based
A549 = experiment: Cytotoxicity against human A549 cells assessed as reduction in cell viability by MTT assay; type: functional, cell-based
MCF7 [4] = experiment: Antiproliferative activity against human MCF7 cells assessed as decrease in cell proliferation at 5 to 10 uM after 24 hrs by bromodeoxyuridine cell proliferation assay relative to untreated control; type: functional, cell-based
MCF7 [5] = experiment: Induction of apoptosis in human MCF7 cells assessed as caspase-3 activation using AFC-conjugated Ac-DEVD as substrate at 5 to 10 uM incubated for 24 to 48 hrs by fluorescence assay relative to untreated control; type: functional
MCF7 [6] = experiment: Induction of apoptosis in human MCF7 cells assessed as caspase-9 activation using AFC-conjugated Ac-LEHD as substrate at 5 to 10 uM incubated for 24 to 48 hrs by fluorescence assay relative to untreated control; type: functional
[7] = Homo sapiens, SK-OV-3, read-out: IC50
[8] = Homo sapiens, DU-145, read-out: IC50
[9] = Homo sapiens, HUVEC, read-out: IC50
[10] = Homo sapiens, MCF7, read-out: IC50
[11] = Homo sapiens, A549, read-out: IC50

Compound	IC50 [1, 7] [µM]	IC50 [2, 8] [µM]	IC50 (HUVEC; [9]) [µM]	IC50 ([1]; sk-ov-3)	IC50 ([2]; du-145)	IC50 (MCF7 [3]; mcf7)	IC50 (A549; a549)	IC50 (HUVEC; huvec)	IC50 (MCF7 [3]; [10]) [µM]	IC50 (A549; [11]) [µM]	Activity (MCF7 [4])	fold change (FC) (MCF7 [5])	fold change (FC) (MCF7 [6])
COc1cccc2c1C(=O)c1c(O)c3c(c(O)c1C2=O)C[C@@](O)(C(=O)CO)C[C@@H]3O[C@H]1C[C@H](N)[C@H](O)[C@H](C)O1 [DOXORUBICIN]	0.7	0.7	79.6	–	–	–	–	–	–	–	–	–	–
CCCCCCCCC1CC1CCCCCCCC(=O)OC[C@H](CO[C@@H]1O[C@H](COC(C)=O)[C@@H](OC(C)=O)[C@H](OC(C)=O)[C@H]1OC(C)=O)OC(=O)CCCCCCCC1CC1CCCCCCCC (stereo partly specified)	–	–	–	Not Active	Not Active	Not Active	Not Active	Not Active	–	–	–	–	–
C=CCCCCCCCCC(=O)OC[C@H](CO[C@@H]1O[C@H](COC(C)=O)[C@@H](OC(C)=O)[C@H](OC(C)=O)[C@H]1OC(C)=O)OC(=O)CCCCCCCCC=C	29.4	33	119	–	–	–	–	–	25.6	30.2	–	–	–
CCCCCCCC/C=C\CCCCCCCC(=O)O[C@H](COC(=O)CCCCCCCC1CC1CCCCCCCC)CO[C@@H]1O[C@H](CO)[C@@H](O)[C@H](O)[C@H]1O (stereo partly specified)	35.6	38.9	99.8	–	–	–	–	–	38.2	41.6	–	–	–
CCCCCCCC/C=C\CCCCCCCC(=O)O[C@H](COC(=O)CCCCCCCC1CC1CCCCCCCC)CO[C@@H]1O[C@H](COC(C)=O)[C@@H](OC(C)=O)[C@H](OC(C)=O)[C@H]1OC(C)=O (stereo partly specified)	–	186	122	Not Active	–	–	Not Active	–	94.2	–	–	–	–
CCCCCCCCCCCC(=O)OC[C@H](CO[C@@H]1O[C@H](COC(C)=O)[C@@H](OC(C)=O)[C@H](OC(C)=O)[C@H]1OC(C)=O)OC(=O)CCCCCCCCCCC	–	–	–	Not Active	Not Active	Not Active	Not Active	Not Active	–	–	–	–	–
CCCCCCCCCCCC(=O)OC[C@H](CO[C@@H]1O[C@H](CO)[C@@H](O)[C@H](O)[C@H]1O)OC(=O)CCCCCCCCCCC	44.4	54.9	96.1	–	–	–	–	–	32.6	35.6	–	–	–
CCCCCCCC/C=C\CCCCCCCC(=O)OC[C@H](CO[C@@H]1O[C@H](COC(C)=O)[C@@H](OC(C)=O)[C@H](OC(C)=O)[C@H]1OC(C)=O)OC(=O)CCCCCCC/C=C\CCCCCCCC	–	–	–	Not Active	Not Active	Not Active	Not Active	Not Active	–	–	–	–	–
CCCCCCCCC1CC1CCCCCCCC(=O)OC[C@H](CO[C@@H]1O[C@H](CO)[C@@H](O)[C@H](O)[C@H]1O)OC(=O)CCCCCCCC1CC1CCCCCCCC (stereo partly specified)	112	210	120	–	–	–	–	–	99.8	124	–	–	–
C=CCCCCCCCCC(=O)OC[C@H](CO[C@@H]1O[C@H](CO)[C@@H](O)[C@H](O)[C@H]1O)OC(=O)CCCCCCCCC=C	89.6	119	126	–	–	–	–	–	32.5	106	–	–	–
CCCCCCCC/C=C\CCCCCCCC(=O)OC[C@H](CO[C@@H]1O[C@H](CO)[C@@H](O)[C@H](O)[C@H]1O)OC(=O)CCCCCCC/C=C\CCCCCCCC	19.1	20.1	110	–	–	–	–	–	17.6	18.2	Active	2	2
